≈ marks a conversion by molar mass, not a printed value.
How the values were obtained:
Assay type in all cases: functional, cell-based
Conditions in all cases: Homo sapiens
A549 = assay: Inhibitory concentration against A549 (lung cancer) cell line
HeLa = assay: Inhibitory concentration against HeLa (cervical cancer) cell line
K562 = assay: Inhibitory concentration against K562 (leukemia) cell line
DLD-1 = assay: Inhibitory concentration against DLD-1 (colon cancer) cell line

| SMILES | IC50 (A549) | IC50 (HeLa) | IC50 (K562) | IC50 (DLD-1) |
| --- | --- | --- | --- | --- |
| COc1cc2c3c(c4ccc(O)c(OC)c4c2cc1OC)[C@H](O)[C@@H]1CCCN1C3 | 0.5 ng/mL (≈ 1.26 nM) | 0.1 ng/mL (≈ 0.253 nM) | 0.5 ng/mL (≈ 1.26 nM) | 0.8 ng/mL (≈ 2.02 nM) |
| COc1cc2c3c(c4ccc(O)cc4c2cc1OC)[C@H](O)[C@@H]1CCCN1C3 [TYLOPHORIDICINE E] | 0.4 ng/mL (≈ 1.09 nM) | 0.8 ng/mL (≈ 2.19 nM) | 0.4 ng/mL (≈ 1.09 nM) | 0.5 ng/mL (≈ 1.37 nM) |
